Experimental data as given in patent publication US20230151034A1 (COCRYSTAL PHARMA, INC., priority 2020, published 2023).

target: SARS2 protease (Severe acute respiratory syndrome coronavirus 2, UniProt P0DTD1); assay: SARS-CoV-2 protease inhibition assay (SARS2 FRET protease assay); type: biochemical; conditions: not given
Protocol: Viral protease assays: The antiviral activities of inhibitors were determined by FRET (Fluorescence Resonance Energy Transfer) assay. Purified viral protease was incubated with the protease substrate peptide (Edans-DFHLQ/GP-Dabcyl) and inhibitor, and IC50 values were subsequently determined by the fluorescence signals.
The SARS2 FRET protease assay was performed in 20 mM HEPES-Na pH 7, 120 mM NaCl, 0.4 mM EDTA, 0.01% Triton, 5% glycerol, and 4 mM DTT. A self-quenching peptide substrate 5-FAM-TSA VLQ SGF RKK (5TAMRA)-NH2 was custom synthesized by Anaspec. Compounds were diluted in 3-fold serial dilutions to final concentrations of 20 μM to 1.0 nM. SARS2 protease was added to a final concentration of 25 nM, depending on the enzyme activity level, and the peptide substrate was added to a final concentration of 1.3 μM. The assay was incubated 30 minutes at 30° C. and read in a Perkin Elmer Envision with excitation at 473 nm and emission measurement at 519 nm.

Work on `CC(C)C[C@@H]1NC(=O)OC(Cc2ccccc2)CCC=CCC(C(=O)N(C)C)C[C@@H](C(=O)C(=O)NC(C)C)NC1=O` (stereo partly drawn) [Compound B42, (4S,7S)-15-benzyl-4-isobutyl-7-(2-(isopropylamino)-2-oxoacetyl)-N,N-dimethyl-2,5-dioxo-1-oxa-3,6-diazacyclopentadec-11-ene-9-carboxamide] yielded an IC50 of over 200 µM.

same assay, conditions: Table E; SARS-CoV-2 protease inhibition; read-out: IC50

`CCCC1CCCC/C=C/CC2CC(NC(=O)[C@H](CC(C)C)NC1=O)C(O)(C(=O)NC(C)C)N(C)C2=O` (stereo partly drawn) [Compound B26, (4S,E)-18-hydroxy-4-isobutyl-N-isopropyl-17-methyl-3,6,16-trioxo-7-propyl-2,5,17-triazabicyclo[13.3.1]nonadec-12-ene-18-carboxamide] and `CCCCCCCC1CCCC/C=C/CC(C(=O)NC)C[C@@H](CO)NC(=O)[C@H](CC(C)C)NC1=O` (stereo partly drawn) [Compound B66, (2S,5S,E)-15-heptyl-5-(hydroxymethyl)-2-isobutyl-N-methyl-3,16-dioxo-1,4-diazacyclohexadec-9-ene-7-carboxamide] cannot be ordered by IC50: over 200 µM for the first, over 200 µM for the second.

`CCOP(=O)(OCC)C(O)[C@H](CCC(=O)N(C)CCc1ccncc1)NC(=O)[C@H](CC1CCCCC1)NC(=O)OCc1cccc(Cl)c1` (stereo partly drawn) [Compound A51, 3-Chlorobenzyl ((2S)-3-cyclohexyl-1-(((2S)-1-(diethoxyphosphoryl)-1-hydroxy-5-(methyl (2-(pyridin-4-yl)ethyl)amino)-5-oxopentan-2-yl)amino)-1-oxopropan-2-yl) carbamate] and `CCOP(=O)(OCC)C(O)[C@H](CCC(=O)N(C)CCc1cccc(Cl)c1)NC(=O)[C@H](CC1CCCCC1)NC(=O)OCc1cccc(Cl)c1` (stereo partly drawn) [Compound A34, 3-Chlorobenzyl ((2S)-1-(((2S)-5-((3-chlorophenethyl)(methyl)amino)-1-(diethoxyphosphoryl)-1-hydroxy-5-oxopentan-2-yl)amino)-3-cyclohexyl-1-oxopropan-2-yl)carbamate] cannot be ordered by IC50: over 200 µM for the first, over 200 µM for the second.

`CCCCCCCC1CCCCCC(C(=O)N(C)C)CC(C(=O)N(C)OC)NC(=O)[C@H](CC(C)C)NC1=O` (stereo in doubt) [Compound B19, (2S,5S)-13-heptyl-2-isobutyl-N^5-methoxy-N^5,N^7,N^7-trimethyl-3,14-dioxo-1,4-diazacyclotetradecane-5,7-dicarboxamide] and `CCCCCCCC1CC/C=C\CC(C(=O)N(C)C)CC(C(=O)N(C)OC)NC(=O)[C@H](CC(C)C)NC1=O` (stereo in doubt) [Compound B11, (2S,5S,Z)-13-heptyl-2-isobutyl-N^5-methoxy-N^5,N^7,N^7-trimethyl-3,14-dioxo-1,4-diazacyclotetradec-9-ene-5,7-dicarboxamide] cannot be ordered by IC50: over 200 µM for the first, over 200 µM for the second.

`CCOP(=O)(OCC)C(O)[C@H](CCC(=O)N(C)CC(C)c1ccccc1)NC(=O)[C@H](CC1CCCCC1)NC(=O)OCc1cccc(Cl)c1` (stereo partly drawn) [Compound A102, 3-Chlorobenzyl ((2S)-3-cyclohexyl-1-(((2S)-1-(diethoxyphosphoryl)-1-hydroxy-5-(methyl(2-phenylpropyl)amino)-5-oxopentan-2-yl)amino)-1-oxopropan-2-yl)carbamate] and `CCOP(=O)(OCC)C(O)[C@H](CCC(=O)N(C)CCc1ccccc1Cl)NC(=O)[C@H](CC1CCCCC1)NC(=O)OCc1cccc(Cl)c1` (stereo partly drawn) [Compound A47, 3-Chlorobenzyl ((2S)-1-(((2S)-5-((2-chlorophenethyl)(methyl)amino)-1-(diethoxyphosphoryl)-1-hydroxy-5-oxopentan-2-yl)amino)-3-cyclohexyl-1-oxopropan-2-yl)carbamate] cannot be ordered by IC50: over 200 µM for the first, over 200 µM for the second.

Compared with `CC(C)C[C@@H]1NC(=O)C(Cc2ccccc2)CCCCCCCC2CC(NC1=O)C(O)N(C)C2=O` (stereo partly drawn) [Compound B24, (4S)-7-benzyl-18-hydroxy-4-isobutyl-17-methyl-2,5,17-triazabicyclo[13.3.1]nonadecane-3,6,16-trione], `CCO[N+]([O-])(OCC)[C@H](O)[C@H]1CC2(CCCCCCC(Cc3ccccc3)C(=O)N[C@@H](CC(C)C)C(=O)N1)CCNC2=O` (stereo partly drawn) [Compound B41] is higher in IC50: 188 µM for the first, over 200 µM for the second. The first is the more potent here.

Compared with `CCCCCCCC1CC/C=C\CC(C(=O)N(C)C)CC(C=O)NC(=O)[C@H](CC(C)C)NC1=O` (stereo in doubt) [Compound B10, (2S,5S,Z)-5-formyl-13-heptyl-2-isobutyl-N,N-dimethyl-3,14-dioxo-1,4-diazacyclotetradec-9-ene-7-carboxamide], `CCCCCCCC1CCCCCC(C(=O)N(C)C)CC(C=O)NC(=O)[C@H](CC(C)C)NC1=O` (stereo in doubt) [Compound B18, (2S,5S)-5-formyl-13-heptyl-2-isobutyl-N,N-dimethyl-3,14-dioxo-1,4-diazacyclotetradecane-7-carboxamide] is higher in IC50: 105 µM for the first, over 200 µM for the second.

`CCOC(=O)NCCN(C)C(=O)CC[C@H](NC(=O)[C@H](CC1CCCCC1)NC(=O)OCc1cccc(Cl)c1)C(=O)N(C)OC` (stereo in doubt) [Compound A32, 3-Chlorobenzyl ((12S,15S)-16-cyclohexyl-12-(methoxy(methyl)carbamoyl)-8-methyl-4,9,14-trioxo-3-oxa-5,8,13-triazahexadecan-15-yl)carbamate] and `CON(C)C(=O)[C@H](CCC(=O)N(C)C)NC(=O)[C@H](CC1CCCCC1)NC(=O)OCc1cccc(Cl)c1` [Compound A3, 3-Chlorobenzyl ((S)-3-cyclohexyl-1-(((S)-5-(dimethylamino)-1-(methoxy (methyl)amino)-1,5-dioxopentan-2-yl)amino)-1-oxopropan-2-yl)carbamate] cannot be ordered by IC50: over 200 µM for the first, over 200 µM for the second.

First: CC(C)CC1NC(=O)OC(Cc2ccccc2)CC/C=C/CC(C(=O)N(C)C)CC(C=O)NC1=O (stereo in doubt) [Compound B38, (4S,7S)-15-Benzyl-7-formyl-4-isobutyl-N,N-dimethyl-2,5-dioxo-1-oxa-3,6-diazacyclopentadec-11-ene-9-carboxamide]
Second: CON(C)C(=O)[C@@H]1CC(C(=O)N(C)C)C/C=C/CCC(Cc2ccccc2)OC(=O)NC(CC(C)C)C(=O)N1 (stereo in doubt) [Compound B31, (4S,7S)-15-Benzyl-4-isobutyl-N7-methoxy-N7,N9,N9-trimethyl-2,5-dioxo-1-oxa-3,6-diazacyclopentadec-11-ene-7,9-dicarboxamide]
The IC50 of the first is lower: 137 µM for the first, over 200 µM for the second.

`CCCCCCCCC(=O)N[C@@H](CC(C)C)C(=O)NC1(C)CCC(=O)N(C)C1(O)C(=O)NC(C)C` (stereo partly drawn) [Compound A5, 2-hydroxy-N-isopropyl-1,3-dimethyl-3-((S)-4-methyl-2-nonanamidopentanamido)-6-oxopiperidine-2-carboxamide] and `CCCCCCCCC(=O)N[C@@H](CC(C)C)C(=O)NC1CCC(=O)N(C)C1(O)C(=O)NC(C)C` (stereo in doubt) [Compound A4, (3S)-2-hydroxy-N-isopropyl-1-methyl-3-((S)-4-methyl-2-nonanamidopentanamido)-6-oxopiperidine-2-carboxamide] cannot be ordered by IC50: over 200 µM for the first, over 200 µM for the second.

`CCCCCCC1CCC/C=C\CC(C(=O)N(C)C)CC(C(=O)N(C)OC)NC(=O)C(CC(C)C)NC(=O)C1` (stereo in doubt) [Compound B14, (2S,5S,Z)-14-hexyl-2-isobutyl-N5-methoxy-N^5,N^7,N^7-trimethyl-3,16-dioxo-1,4-diazacyclohexadec-9-ene-5,7-dicarboxamide] and `CCCCCCCC1CC/C=C/CC(C(=O)NC)C[C@@H](C(=O)N(C)OC)NC(=O)C(CC(C)C)NC(=O)O1` (single isomer, unassigned) [Compound B35] cannot be ordered by IC50: over 200 µM for the first, over 200 µM for the second.

Compared with `CCCCCCCC1CC/C=C/CC(C(=O)NC)C[C@@H](CO)NC(=O)[C@H](CC(C)C)NC(=O)O1` (stereo partly drawn) [Compound B63, (4S,7S,E)-15-heptyl-7-(hydroxymethyl)-4-isobutyl-N-methyl-2,5-dioxo-1-oxa-3,6-diazacyclopentadec-11-ene-9-carboxamide], `CCCCCCCC1CC/C=C/CC(C(=O)NC)C[C@@H](C(=O)N(C)OC)NC(=O)C(CC(C)C)NC(=O)O1` (single isomer, unassigned) [Compound B34] is higher in IC50: 30 µM for the first, over 200 µM for the second.

`CCCCCCCCC(=O)N[C@@H](CC(C)C)C(=O)N[C@H](CO)CCC(=O)NC` [Compound A110, N—((S)-1-(((S)-1-hydroxy-5-(methylamino)-5-oxopentan-2-yl)amino)-4-methyl-1-oxopentan-2-yl)nonanamide] and `CCCCCCCCC(=O)N[C@@H](CC(C)C)C(=O)N[C@@H](CCC(=O)NC)CSSC[C@H](CCC(=O)NC)NC(=O)[C@H](CC(C)C)NC(=O)CCCCCCCC` [Compound A111, N,N′-((2S,2'S)-(((2S,2'S)-disulfanediylbis(5-(methylamino)-5-oxopentane-1,2-diyl))bis(azanediyl))bis(4-methyl-1-oxopentane-1,2-diyl))dinonanamide] cannot be ordered by IC50: over 200 µM for the first, over 200 µM for the second.

`CCN(CCc1ccccc1)C(=O)CC[C@H](NC(=O)[C@H](CC1CCCCC1)NC(=O)OCc1cccc(Cl)c1)C(=O)N(C)OC` (stereo in doubt) [Compound A42, 3-Chlorobenzyl ((S)-3-cyclohexyl-1-(((S)-5-(ethyl(phenethyl)amino)-1-(methoxy(methyl)amino)-1,5-dioxopentan-2-yl)amino)-1-oxopropan-2-yl)carbamate] and `CON(C)C(=O)[C@H](CCC(=O)N(C)CCc1ccccc1)NC(=O)[C@H](CC1CCCCC1)NC(=O)OCc1cccc(Cl)c1` (stereo in doubt) [Compound A30, 3-chlorobenzyl ((S)-3-cyclohexyl-1-(((S)-1-(methoxy(methyl)amino)-5-(methyl(phenethyl)amino)-1,5-dioxopentan-2-yl)amino)-1-oxopropan-2-yl)carbamate] cannot be ordered by IC50: over 200 µM for the first, over 200 µM for the second.
